The values below come from the NIST ThermoML archive (doi:10.1016/j.fluid.2018.05.029).

± gives the expanded uncertainty stated by the source.

For this data set the following is noted: Liquid; Resistive pulse heating.
Turning to `CN1CCN(C)CC1` [1,4-dimethylpiperazine], the Critical pressure was 3730 ± 120 kPa and the Critical temperature stood at 606 ± 6 K.

In the case of `O=C1CCCCCN1` [1-aza-2-cycloheptanone], the Critical pressure was 4660 ± 140 kPa and the Critical temperature turned out to be 801 ± 8 K.

Turning to `CC1CNCC(C)N1` (stereo not drawn) [2,6-dimethylpiperazine], the Critical pressure is 3800 ± 120 kPa and the Critical temperature came out at 646 ± 6 K.

On to `C[S+](C)[O-]` [dimethyl sulfoxide], for which the Critical pressure is recorded as 5130 ± 160 kPa and the Critical temperature is 718 ± 7 K.
